Test results taken from ChEMBL document CHEMBL5661980, “Discovery of OSI-906: a selective and orally efficacious dual inhibitor of the IGF-1 receptor and insulin receptor” (Future Med Chem, 2009).
Where “and” joins values, the source holds several entries; their conditions need not be identical. Identical values can stand only once.

Legend:
[1] = target: T1, Insulin-like growth factor 1 receptor (Homo sapiens, UniProt P08069); assay: Inhibition of human recombinant IGF-1 receptor expressed in mouse 3T3 cells treated for 15 mins by ELISA analysis; assay type: cell-based
[2] = target: T1, Insulin-like growth factor 1 receptor; assay: Inhibition of human recombinant IGF-1 receptor in presence of ATP by ELISA analysis
[3] = target: Cytochrome P450 3A4 (Homo sapiens, UniProt P08684); assay: Inhibition of CYP3A4 (unknown origin) using luciferin as substrate in presence of NADPH generating system incubated for 20 mins by luminescent method; assay type: ADME
[4] = Microsomal stability in rat liver microsomes assessed as extraction ratio in presence of NADPH for 0 to 40 mins by LC-MS/MS analysis; assay type: ADME, Microsome; conditions: time 0-40 min, read-out: ERH
[5] = Microsomal stability in dog liver microsomes assessed as extraction ratio in presence of NADPH for 0 to 40 mins by LC-MS/MS analysis; assay type: ADME, Canis lupus familiaris, Microsome; conditions: time 0-40 min, read-out: ERH
[6] = Plasma concentration in CD-1 mouse at 25 mg/kg, po measured after 24 hrs by HPLC-MS/MS analysis; assay type: ADME, organism-based
[7] = Cmax in Sprague-Dawley rat at 20 mg/kg, po measured after 1 to 24 hrs by HPLC-MS/MS analysis; assay type: ADME, organism-based; conditions: in vivo, time 1-24 hrs
[8] = Plasma concentration in Sprague-Dawley rat at 20 mg/kg, po measured after 24 hrs by HPLC-MS/MS analysis; assay type: ADME, organism-based
[9] = Elimination half life in Sprague-Dawley rat at 20 mg/kg, po measured after 1 to 24 hrs by HPLC-MS/MS analysis; assay type: ADME, organism-based; conditions: in vivo, time 1-24 hrs, read-out: beta t1/2 (converted)
[10] = AUC (0 to infinity) in Sprague-Dawley rat at 20 mg/kg, po measured after 1 to 24 hrs by HPLC-MS/MS analysis; assay type: ADME, organism-based; conditions: in vivo, time 1-24 hrs
[11] = Oral bioavailability in Sprague-Dawley rat administered at 20 mg/kg measured after 1 to 24 hrs by HPLC-MS/MS analysis; assay type: ADME, organism-based; conditions: in vivo, time 1-24 hrs
[12] = Elimination half life in Sprague-Dawley rat at 5 mg/kg, iv measured after 1 to 24 hrs by HPLC-MS/MS analysis; assay type: ADME, organism-based; conditions: in vivo, time 1-24 hrs, read-out: beta t1/2 (converted)
[13] = Volume of distribution at steady state in Sprague-Dawley rat at 5 mg/kg, iv measured after 1 to 24 hrs by HPLC-MS/MS analysis; assay type: ADME, organism-based; conditions: in vivo, time 1-24 hrs, read-out: Vdss
[14] = Clearance in Sprague-Dawley rat at 5 mg/kg, iv measured after 1 to 24 hrs by HPLC-MS/MS analysis; assay type: ADME, organism-based; conditions: in vivo, time 1-24 hrs
[15] = Cmax in CD-1 mouse at 25 mg/kg, po measured after 1 to 24 hrs by HPLC-MS/MS analysis; assay type: ADME, organism-based; conditions: in vivo, time 1-24 hrs
[16] = Elimination half life in CD-1 mouse at 25 mg/kg, po measured after 1 to 24 hrs by HPLC-MS/MS analysis; assay type: ADME, organism-based; conditions: in vivo, time 1-24 hrs, read-out: beta t1/2 (converted)
[17] = AUC (0 to infinity) in CD-1 mouse at 25 mg/kg, po measured after 1 to 24 hrs by HPLC-MS/MS analysis; assay type: ADME, organism-based; conditions: in vivo, time 1-24 hrs
[18] = Oral bioavailability in CD-1 mouse administered at 25 mg/kg measured after 1 to 24 hrs by HPLC-MS/MS analysis; assay type: ADME, organism-based; conditions: in vivo, time 1-24 hrs
[19] = Elimination half life in CD-1 mouse at 10 mg/kg, iv measured after 1 to 24 hrs by HPLC-MS/MS analysis; assay type: ADME, organism-based; conditions: in vivo, time 1-24 hrs, read-out: beta t1/2 (converted)
[20] = Volume of distribution at steady state in CD-1 mouse at 10 mg/kg, iv measured after 1 to 24 hrs by HPLC-MS/MS analysis; assay type: ADME, organism-based; conditions: in vivo, time 1-24 hrs, read-out: Vdss
[21] = Clearance in CD-1 mouse at 10 mg/kg, iv measured after 1 to 24 hrs by HPLC-MS/MS analysis; assay type: ADME, organism-based; conditions: in vivo, time 1-24 hrs
[22] = in vitro; conditions: human, liver microsomes
Description: Microsomal stability in human liver microsomes assessed as extraction ratio in presence of NADPH for 0 to 40 mins by LC-MS/MS analysis

[23] = in vitro; conditions: mouse, liver microsomes
Description: Microsomal stability in mouse liver microsomes assessed as extraction ratio in presence of NADPH for 0 to 40 mins by LC-MS/MS analysis

[24] = Cmax in CD-1 mouse at 50 mg/kg, po measured after 1 to 24 hrs by HPLC-MS/MS analysis; assay type: ADME, organism-based; conditions: in vivo, time 1-24 hrs
[25] = AUC (0 to infinity) in CD-1 mouse at 50 mg/kg, po measured after 1 to 24 hrs by HPLC-MS/MS analysis; assay type: ADME, organism-based; conditions: in vivo, time 1-24 hrs
[26] = Oral bioavailability in CD-1 mouse administered at 50 mg/kg measured after 1 to 24 hrs by HPLC-MS/MS analysis; assay type: ADME, organism-based; conditions: in vivo, time 1-24 hrs
[27] = Elimination half life in CD-1 mouse at 5 mg/kg, iv measured after 1 to 24 hrs by HPLC-MS/MS analysis; assay type: ADME, organism-based; conditions: in vivo, time 1-24 hrs, read-out: beta t1/2 (converted)
[28] = Volume of distribution at steady state in CD-1 mouse at 5 mg/kg, iv measured after 1 to 24 hrs by HPLC-MS/MS analysis; assay type: ADME, organism-based; conditions: in vivo, time 1-24 hrs, read-out: Vdss
[29] = Clearance in CD-1 mouse at 5 mg/kg, iv measured after 1 to 24 hrs by HPLC-MS/MS analysis; assay type: ADME, organism-based; conditions: in vivo, time 1-24 hrs
[30] = Elimination half life in CD-1 mouse at 50 mg/kg, po measured after 1 to 24 hrs by HPLC-MS/MS analysis; assay type: ADME, organism-based; conditions: in vivo, time 1-24 hrs, read-out: beta t1/2 (converted)
[31] = Plasma concentration in athymic nu/nu CD-1 mouse at 100 mg/kg, po measured at 1 hr by HPLC - UV analysis; assay type: ADME, organism-based
[32] = Plasma concentration in athymic nu/nu CD-1 mouse at 100 mg/kg, po measured at 4 hrs by HPLC - UV analysis; assay type: ADME, organism-based
[33] = Plasma concentration in athymic nu/nu CD-1 mouse at 100 mg/kg, po measured at 8 hrs by HPLC - UV analysis; assay type: ADME, organism-based
[34] = Plasma concentration in athymic nu/nu CD-1 mouse at 100 mg/kg, po measured at 16 hrs by HPLC - UV analysis; assay type: ADME, organism-based

T1 sequence (P08069 31-736 limits assumed): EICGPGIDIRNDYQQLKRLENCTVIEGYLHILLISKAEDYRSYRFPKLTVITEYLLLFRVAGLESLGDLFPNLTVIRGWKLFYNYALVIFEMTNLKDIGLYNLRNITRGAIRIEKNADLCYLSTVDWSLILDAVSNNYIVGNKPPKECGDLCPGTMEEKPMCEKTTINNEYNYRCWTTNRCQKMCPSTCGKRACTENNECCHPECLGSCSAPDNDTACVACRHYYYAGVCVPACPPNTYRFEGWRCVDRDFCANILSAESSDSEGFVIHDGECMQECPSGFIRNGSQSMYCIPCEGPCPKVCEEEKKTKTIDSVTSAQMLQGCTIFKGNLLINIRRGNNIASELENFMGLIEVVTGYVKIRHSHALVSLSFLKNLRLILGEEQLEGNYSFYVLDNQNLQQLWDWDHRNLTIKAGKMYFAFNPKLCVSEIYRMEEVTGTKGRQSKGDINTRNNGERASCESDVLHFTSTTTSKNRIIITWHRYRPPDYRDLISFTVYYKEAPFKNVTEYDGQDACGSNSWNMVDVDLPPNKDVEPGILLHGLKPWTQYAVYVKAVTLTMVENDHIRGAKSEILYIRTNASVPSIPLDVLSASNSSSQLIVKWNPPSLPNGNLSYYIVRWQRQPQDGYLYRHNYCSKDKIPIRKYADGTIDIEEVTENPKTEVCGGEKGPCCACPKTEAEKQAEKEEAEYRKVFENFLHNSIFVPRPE
T1 sequence (P08069 741-1367 limits assumed): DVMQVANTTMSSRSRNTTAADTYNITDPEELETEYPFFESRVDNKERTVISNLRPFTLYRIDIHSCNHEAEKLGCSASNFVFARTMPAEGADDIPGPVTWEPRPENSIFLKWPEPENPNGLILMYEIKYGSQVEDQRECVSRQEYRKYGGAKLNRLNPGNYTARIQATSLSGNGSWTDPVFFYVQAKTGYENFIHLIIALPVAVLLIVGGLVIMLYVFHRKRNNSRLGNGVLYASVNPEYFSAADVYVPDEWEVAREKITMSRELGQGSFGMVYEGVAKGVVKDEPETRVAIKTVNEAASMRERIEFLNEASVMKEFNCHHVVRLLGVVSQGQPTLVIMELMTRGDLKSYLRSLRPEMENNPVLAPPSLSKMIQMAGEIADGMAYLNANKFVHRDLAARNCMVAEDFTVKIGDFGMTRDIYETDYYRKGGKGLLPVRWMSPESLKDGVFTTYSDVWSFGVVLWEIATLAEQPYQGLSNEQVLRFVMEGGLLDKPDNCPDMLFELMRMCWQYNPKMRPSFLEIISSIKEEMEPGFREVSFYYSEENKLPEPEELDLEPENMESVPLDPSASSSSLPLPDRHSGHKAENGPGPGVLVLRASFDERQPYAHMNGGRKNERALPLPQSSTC
Cytochrome P450 3A4, sequence (P08684 whole entry): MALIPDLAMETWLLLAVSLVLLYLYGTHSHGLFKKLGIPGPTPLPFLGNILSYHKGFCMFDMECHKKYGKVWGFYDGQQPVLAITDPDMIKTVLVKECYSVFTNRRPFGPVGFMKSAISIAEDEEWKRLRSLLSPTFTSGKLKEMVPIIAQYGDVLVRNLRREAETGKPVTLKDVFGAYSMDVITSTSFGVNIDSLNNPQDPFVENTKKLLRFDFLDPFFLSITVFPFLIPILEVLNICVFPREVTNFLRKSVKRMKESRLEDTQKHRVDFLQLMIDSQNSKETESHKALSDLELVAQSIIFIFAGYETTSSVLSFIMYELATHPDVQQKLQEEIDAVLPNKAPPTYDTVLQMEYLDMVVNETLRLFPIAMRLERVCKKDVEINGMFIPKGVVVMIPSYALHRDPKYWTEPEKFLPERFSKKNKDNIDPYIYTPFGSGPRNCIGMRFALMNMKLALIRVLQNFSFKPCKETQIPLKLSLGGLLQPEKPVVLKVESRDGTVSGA

`CN1CCN([C@H]2C[C@@H](c3nc(-c4ccc5ccc(-c6ccccc6)nc5c4)c4c(N)nccn43)C2)CC1` gave an IC50 [1] of 19 nM, an IC50 [2] of 24 nM and an IC50 [3] of 8300 nM. The hepatic extraction ratio [4] was 0.21, the hepatic extraction ratio [5] was 0.5 and the concentration at 24 h [6] was 1040 nM. It also gave a Cmax [7] of 1350 nM, a concentration at 24 h [8] of 740 nM and a half-life [9] of 28.7 h. It also gave an AUC(0-inf) [10] of 28700 ng·h/mL, a bioavailability [11] of 100% and a half-life [12] of 20 h. The Vd [13] was 21 L/kg, the clearance [14] was 16 mL/min/kg and the Cmax [15] was 2200 nM. The half-life [16] was 23.6 h, the AUC(0-inf) [17] was 34500 ng·h/mL and the bioavailability [18] was 100%. It also gave a half-life [19] of 5 h, a Vd [20] of 8 L/kg and a clearance [21] of 19 mL/min/kg. It also gave a hepatic extraction ratio [22] of 0.59 and a hepatic extraction ratio [23] of 0.53.

In the case of `Nc1nccn2c(C3CCC3)nc(-c3ccc4ccc(-c5ccccc5)nc4c3)c12`, the Cmax [24] is reported as 2680 nM, the AUC(0-inf) [25] is reported as 5170 ng·h/mL and the bioavailability [26] is reported as 56%. It also gave an IC50 [3] of 3300 nM, a half-life [27] of 0.98 h and a Vd [28] of 6.25 L/kg. The clearance [29] was 90 mL/min/kg, the half-life [30] was 0.98 h and the concentration at 1 h [31] was 3200 ng/mL and 8.19 µM. For the same compound, the concentration at 4 h [32] was 1810 ng/mL and 4.62 µM, the concentration at 8 h [33] was 3110 ng/mL and 7.95 µM and the concentration at 16 h [34] was 1030 ng/mL and 2.64 µM.

For `Nc1nccn2c1c(-c1ccc3ccc(-c4ccccc4)nc3c1)nc2[C@H]1CC[C@H](C(N)=O)CC1`, the IC50 [1] was 42 nM, the Cmax [24] was 11400 nM and the AUC(0-inf) [25] was 52500 ng·h/mL. It also gave a bioavailability [26] of 77%.

In the case of `Nc1nccn2c(C3CC(O)C3)nc(-c3ccc4ccc(-c5ccccc5)nc4c3)c12` (stereo not drawn), the concentration at 1 h [31] is reported as 4590 ng/mL and 11.3 µM, the concentration at 4 h [32] is reported as 3660 ng/mL and 8.99 µM and the concentration at 8 h [33] is reported as 4650 ng/mL and 11.4 µM. The concentration at 16 h [34] was 2360 ng/mL and 5.8 µM.
